{"source": "patent US20180289666A1", "about": "“FLAVONOLIGNANS FOR TREATMENT OF AUTOIMMUNE INFLAMMATORY DISEASES” (Macau University of Science and Technology, priority 2017, published 2018)", "key": {"[1]": {"tested_on": "IL-1β, TNF-α, IL-33, MMP-9, TIMP-1 and PGE2 in serum", "assay": "Serum cytokine levels by ELISA in AIA rats", "type": "in vivo, Sprague-Dawley (SD) rats", "conditions": "42 days treatment, versus vehicle-treated AIA rats", "protocol": "Disease severity and progression were evaluated by measurements of both hind paw volumes with a plethysmometer chamber (Yiyan technology, Jinan, China) and body weight with a 0.1 g precision balance (Sartorius AG, Göttingen, Germany) every two or three days after arthritis induction. For evaluation the arthritic scoring, the lesions of four paws of each rat (i.e., the arthritic signs) were graded by two separate investigators with a semi-quantitative scale: 0 (normal), 4-8 (mild changes), 8-12 (moderate changes), and 12-16 (severe changes) (van Eden W., et. al., J. E. Coligan, Editor. 2001, John Wiley: New York. p. 1-11). Erythrocyte sedimentation rate (ESR) was determined with ICSH (International Council for Standardization in Hematology) selected method with little modifications at day 42. Briefly, 120 μl of blood sample was taken directly and put into 30 μl of 0.109 mol/L sodium citrate, mixed well, and then transferred into a 1.0 mm×100 mm capillary tube (West China Medical University, ChengDu, China). The tubes were held obliquely at an angle of […] and the erythrocyte sedimentation rate was recorded at 15 min. The cytokines levels including IL-1β, TNF-α, IL-17, IL-33, MMP-9, TIMP-1 and PGE2 in serum were measured using commercially available ELISA kits according to the manufacturers instructions. At the end of the experiments, rat knee images were measured (mean of three readings per knee, Meinaite digital calliper, ShangHai, China) using a IVIS Lumina XRMS Series (PerkinElmer, America) (Esser, R. E., et al., Arthritis Rheum, 1995, 38(1): p. 129-38)."}, "AIA rats": {"tested_on": "AIA rats", "assay": "Plasma metabolomics by LC-MS/MS in AIA rats", "type": "in vivo, Sprague-Dawley (SD) rats", "protocol": "The plasma sample (200 μL) was thawed on ice for 5 min prior to sample preparation and was mixed with 200 μL of 10 mM N-ethylmaleimide (NEM) in PBS buffer solution and 1000 μL of methanol containing internal standard (I.S.) Phe-d5 in 10 ng/ml. This mixture was incubated at −20° C. for 20 min, and then centrifuged at 12000 rpm for 10 min at 4° C. The supernatant was completely dried under nitrogen flow (Pressure Blowing Concentrator, Tokyo Rikakika, Tokyo, Japan) and reconstituted with distilled water.\nLC-MS/MS analysis was performed on A Waters ACQUITY UPLC coupled with a 4000 Q-TRAP mass spectrometer. Chromatographic separation was carried on a Waters X Bridge™ BEH C18 analytical column (2.5 μm, 3.0×100 mm; Waters, Torrance, Calif.) with a mobile phase composed of 0.1% formic acid water (solvent A) and methanol (solvent B) which was running in a gradient program: 0-3.0 min (0%-1% B); 3.0-10.0 min (1-3% B); 10.0-14.0 min (3-50% B); 14.0-18.0 min (50-95% B); 18.0-22.0 min (95-0% B); followed by a 3-min re-equilibration step. The injection volume was 10 μl at 4° C. and flow rate was 0.6 ml/min. Electrospray (ESI) source were used in both positive and negative ion mode. […]\nThe normalized data were exported and further processed by PCA and PLS-DA using a multivariate analysis package SIMCA-P software (Umea, Sweden). Model quality was evaluated based on the relevant values of R^2 and Q^2. […]"}}}
{"smiles": "COc1cc([C@H]2Oc3cc([C@H]4Oc5cc(O)cc(O)c5C(=O)[C@@H]4O)ccc3O[C@@H]2CO)ccc1O", "note": "(stereo in doubt) [Silybin]", "values": [{"measurement": "serum level of IL-1β", "setting": "[1]", "result": "significant decrease"}, {"measurement": "serum level of MMP-9", "setting": "[1]", "result": "significant decrease"}, {"measurement": "serum level of PGE2", "setting": "[1]", "result": "significant decrease"}, {"measurement": "serum level of TIMP-1", "setting": "[1]", "result": "significant decrease"}, {"measurement": "serum level of TNF-α", "setting": "[1]", "result": "significant decrease"}, {"measurement": "metabolic network (plasma metabolites)", "setting": "AIA rats", "result": "effectively repair the metabolic network"}]}
